{
  "source": "paper PMC8444262",
  "about": "“α-Mangostin Induces Apoptosis and Inhibits Metastasis of Breast Cancer Cells via Regulating RXRα-AKT Signaling Pathway” (Frontiers in Pharmacology, 2021)",
  "target": "T1, RXRα (Homo sapiens, UniProt P19793)",
  "T1 construct": "gene RXRA; RXRα-LBD",
  "T1 sequence (P19793 198-462)": "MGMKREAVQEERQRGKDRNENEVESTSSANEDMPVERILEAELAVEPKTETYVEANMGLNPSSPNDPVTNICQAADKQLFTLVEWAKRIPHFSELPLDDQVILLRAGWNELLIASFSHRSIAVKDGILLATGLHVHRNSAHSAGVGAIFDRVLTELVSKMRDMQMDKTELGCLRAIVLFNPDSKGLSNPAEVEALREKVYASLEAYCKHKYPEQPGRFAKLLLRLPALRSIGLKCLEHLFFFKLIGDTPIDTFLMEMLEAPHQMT",
  "assay": "SPR (Biacore S200, immobilized RXRα-LBD); supported by antagonism of 9-cis-RA in GAL4-RXRα-LBD reporter assay",
  "type": "binding",
  "data": [
    {"smiles": "COc1c(O)cc2oc3cc(O)c(CC=C(C)C)c(O)c3c(=O)c2c1CC=C(C)C", "note": "[compound 3, α-Mangostin]", "values": [
      {"measurement": "Kd", "value": 39, "unit": "µM"}
    ]}
  ]
}
